{
  "source": "patent US20120070421A1",
  "about": "(priority 2009, published 2012)",
  "key": {"Pyricularia oryzae": {"system": "Pyricularia oryzae", "type": "cell-based", "conditions": "single active, 7 days after inoculation"}, "Plasmopara viticola": {"system": "Plasmopara viticola", "test": "Green house: fungicidal control of grape downy mildew, protective spray on grape cuttings", "type": "in vivo", "conditions": "single active, grape plants, sprayed 1 day before inoculation", "procedure": "The stock solution were prepared: a mixture of acetone and/or dimethylsulfoxide and the wetting agent/emulsifier Wettol, which is based on ethoxylated alkylphenoles, in a relation (volume) solvent-emulsifier of 99 to 1 was added to 25 mg of the compound to give a total of 10 ml. Water was then added to total volume of 100 ml. This stock solution was diluted with the described solvent-emulsifier-water mixture to the given concentration.\nThe visually determined percentages of infected leaf areas are converted into efficacies in % of the untreated control.\nThe efficacy (E) is calculated as follows using Abbot's formula: […]\nα corresponds to the fungicidal infection of the treated plants in % and β corresponds to the fungicidal infection of the untreated (control) plants in %\nAn efficacy of 0 means that the infection level of the treated plants corresponds to that of the untreated control plants; an efficacy of 100 means that the treated plants were not infected.\nThe expected efficacies of active compound combinations were determined using Colby's formula (Colby, S. R. “Calculating synergistic and antagonistic responses of herbicide combinations”, Weeds, 15, pp. 20-22, 1967) and compared with the observed efficacies.\nColby's formula: E=x+y−x·y/100\nE expected efficacy, expressed in % of the untreated control, when using the mixture of the active compounds A and B at the concentrations a and b x efficacy, expressed in % of the untreated control, when using the active compound A at the concentration a y efficacy, expressed in % of the untreated control, when using the active compound B at the concentration b.\nGrape cuttings were grown in pots to the 4 to 5 leaf stage. These plants were sprayed to run-off with an aqueous suspension, containing the concentration of active ingredient or their mixture mentioned in the table below. The plants were allowed to air-dry. […] Then the extent of fungal attack on the lower leaf surface was visually assessed as % diseased leaf area."}, "Phytophthora infestans": {"system": "Phytophthora infestans", "type": "cell-based", "conditions": "0.00025 ppm, single active, 7 days after inoculation"}},
  "note": "Like-named read-outs stand apart in the source and are kept apart here.",
  "data": [
    {"smiles": "CCCCCCCCc1c(CC)nc2ncnn2c1N", "note": "[drawing 13, reference compound]", "values": [
      {"measurement": "Observed efficacy", "setting": "Pyricularia oryzae; 4 ppm", "result": 10, "unit": "%"}
    ]},
    {"smiles": "CCCCCCCCc1c(CC)nc2ncnn2c1N", "note": "[drawing 4]", "values": [
      {"measurement": "Observed efficacy", "setting": "Plasmopara viticola; 0.016 ppm", "result": 11, "unit": "%"}
    ]},
    {"smiles": "Cn1cc(C(=O)Nc2ccccc2-c2cc(F)c(F)c(F)c2)c(C(F)F)n1", "values": [
      {"measurement": "Observed efficacy", "setting": "Plasmopara viticola; 0.016 ppm", "result": 0, "unit": "%"}
    ]},
    {"smiles": "Cc1cc(C(F)(F)F)nn1CC(=O)N1CCC(c2nc(C(=O)N(C)[C@@H]3CCCc4ccccc43)cs2)CC1", "note": "[2-{1-[2-(5-methyl-3-trifluoromethyl-pyrazol-1-yl)-acetyl]-piperid-4-yl}-thiazole-4-carboxylic acid methyl-(R)-1,2,3,4-tetrahydro-naphthalen-1-yl-amide]", "values": [
      {"measurement": "Observed efficacy", "setting": "Plasmopara viticola; 0.063 ppm", "result": 67, "unit": "%"},
      {"measurement": "Observed efficacy", "setting": "Phytophthora infestans", "result": 0, "unit": "%"},
      {"measurement": "Observed efficacy", "setting": "Pyricularia oryzae; 0.063 ppm", "result": 1, "unit": "%"},
      {"measurement": "Observed efficacy", "setting": "Pyricularia oryzae; 63 ppm", "result": 28, "unit": "%"}
    ]}
  ]
}
